Several values for one entry are separate records, joined by “and”; a condition that tells them apart may be missing. Equal entries are not always repeated.
Key:
[1] = target: Muscarinic acetylcholine receptor; test: Inhibition of [3H]QNB binding against muscarinic acetylcholine receptor in rat heart.
[2] = target: Muscarinic acetylcholine receptor; test: Inhibition of methacholine induced phasic contraction of guinea pig ileum; format: functional, tissue-based, Cavia porcellus
[3] = target: T1, Muscarinic acetylcholine receptor M3 (Rattus norvegicus, UniProt P08483); test: Binding activity against rat muscarinic acetylcholine receptor M3 using [3H]QNB as the radioligand
[4] = target: Muscarinic acetylcholine receptor; test: Inhibition of [3H]QNB binding against muscarinic acetylcholine receptor in guinea pig ileum; format: tissue-based, Cavia porcellus
[5] = target: T2, Muscarinic acetylcholine receptor M1 (Rattus norvegicus, UniProt P08482); test: Binding activity against rat muscarinic acetylcholine receptor M1 using [3H]QNB as the radioligand
T2 sequence (P08482 whole entry): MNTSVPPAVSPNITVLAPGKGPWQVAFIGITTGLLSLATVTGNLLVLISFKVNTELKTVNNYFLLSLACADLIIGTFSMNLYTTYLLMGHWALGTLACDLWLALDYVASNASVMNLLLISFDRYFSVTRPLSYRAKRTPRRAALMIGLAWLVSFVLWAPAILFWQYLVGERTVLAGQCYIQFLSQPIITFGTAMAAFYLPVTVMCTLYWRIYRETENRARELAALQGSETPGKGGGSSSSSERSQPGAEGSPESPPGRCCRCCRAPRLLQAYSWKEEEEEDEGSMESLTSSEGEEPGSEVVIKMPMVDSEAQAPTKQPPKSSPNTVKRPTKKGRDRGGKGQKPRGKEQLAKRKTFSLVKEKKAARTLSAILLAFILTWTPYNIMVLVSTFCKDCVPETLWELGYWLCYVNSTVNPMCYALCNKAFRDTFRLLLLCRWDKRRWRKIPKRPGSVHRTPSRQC

[6] = target: Muscarinic acetylcholine receptor; test: Inhibition of [3H]pirenzepine binding against muscarinic acetylcholine receptor in rat brain.; format: tissue-based
Cavia porcellus [7] = species: Cavia porcellus; test: Inhibition of methacholine induced tonic contraction of guinea pig ileum; format: functional
Cavia porcellus [8] = species: Cavia porcellus; test: Inhibition against methacholine induced phasic contraction in guinea pig ileum; format: functional; conditions: read-out: pA2 (converted)
Cavia porcellus [9] = species: Cavia porcellus; test: The compound was tested for inhibition against methacholine induced tonic contraction in guinea pig ileum.; format: functional; conditions: read-out: pA2 (converted)
Cavia porcellus [10] = species: Cavia porcellus; test: The compound was tested for inhibition against tonic contraction in guinea pig ileum.; format: functional; conditions: read-out: pA2 (converted)
[11] = target: Muscarinic acetylcholine receptor
Description: Inhibition of [3H]QNB binding against muscarinic acetylcholine receptor in rat brain.

[12] = target: Muscarinic acetylcholine receptor; remark: listed apart in the source
Description: Inhibition of [3H]OXO-M binding against muscarinic acetylcholine receptor in rat brain membranes

[13] = target: Muscarinic acetylcholine receptor; test: The compound was tested for inhibition of [3H]OXO-M binding against muscarinic acetylcholine receptor in rat brain membranes; format: cell membranes
[14] = target: T2, Muscarinic acetylcholine receptor M1; test: The compound was tested for binding activity against muscarinic acetylcholine receptor M1, using [3H]QNB as the radioligand.
[15] = target: T1, Muscarinic acetylcholine receptor M3; test: The compound was tested for binding activity against muscarinic acetylcholine receptor M3, using [3H]-QNB as the radioligand.
Cavia porcellus [16] = species: Cavia porcellus; test: The compound was tested for inhibition against methacholine induced tonic contraction in guinea pig ileum; format: functional; conditions: read-out: pA2 (converted)

T1 sequence (P08483 whole entry): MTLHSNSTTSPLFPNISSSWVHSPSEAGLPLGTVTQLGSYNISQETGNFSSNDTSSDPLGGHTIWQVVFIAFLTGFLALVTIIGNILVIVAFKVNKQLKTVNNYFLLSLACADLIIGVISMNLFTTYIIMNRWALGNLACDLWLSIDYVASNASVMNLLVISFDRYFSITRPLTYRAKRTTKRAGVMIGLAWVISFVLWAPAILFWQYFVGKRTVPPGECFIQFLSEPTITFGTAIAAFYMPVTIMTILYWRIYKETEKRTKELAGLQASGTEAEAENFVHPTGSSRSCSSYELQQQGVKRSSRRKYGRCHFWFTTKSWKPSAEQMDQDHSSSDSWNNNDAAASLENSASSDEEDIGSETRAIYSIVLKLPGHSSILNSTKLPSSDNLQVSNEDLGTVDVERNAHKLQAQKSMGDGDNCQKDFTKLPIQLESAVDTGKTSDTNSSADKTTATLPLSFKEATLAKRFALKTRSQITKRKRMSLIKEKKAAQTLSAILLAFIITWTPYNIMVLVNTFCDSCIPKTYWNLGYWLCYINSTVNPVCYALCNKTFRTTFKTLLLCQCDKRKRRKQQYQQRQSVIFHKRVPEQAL

Structure (SMILES)	Ki [1] [nM]	-Log Kd [2]	Ki [3] [nM]	Ki [4] [nM]	Ki [5] [nM]	Ki [6] [nM]	-Log Kd (Cavia porcellus [7])	Kb (Cavia porcellus [8]) [nM]	Kb (Cavia porcellus [9]) [nM]	Kb (Cavia porcellus [10]) [nM]	Ki [11] [nM]	Ki [12] [nM]	Ki [13] [nM]	Ki [14] [nM]	Ki [15] [nM]	Kb (Cavia porcellus [16]) [nM]
CC(C(=O)O[C@H]1CC2CC(C1)N(Cc1ccccc1)C2)(c1ccccc1)c1ccccc1 (some centres not stated)	9.28	8.04	12.5	12.8	10.9	27.9	8.03	6.17	5.62	5.62	9.53	–	–	–	–	–
CC(=O)O[C@H]1CC2CC(C1)N(C(C)c1ccccc1)C2 (some centres not stated)	–	–	3380	4570	2770	–	–	–	–	–	3530	113	–	–	–	–
CN1CC2CC1C[C@@H](OC(=O)C(C)(c1ccccc1)c1ccccc1)C2 (stereo in doubt; 1)	0.196	10.46	0.472	0.279	0.0881	0.118	–	0.0741	–	–	0.13	–	–	–	–	–
CC(=O)O[C@@H]1C[C@@H]2C[C@H](C1)N([C@H](C)c1ccccc1)C2 (stereo in doubt; 13)	–	–	4280	3750	9180	–	–	–	–	–	4710	4150	–	–	–	–
CC(=O)O[C@@H]1C[C@@H]2C[C@H](C1)N([C@H](C)c1ccccc1)C2 (stereo in doubt; 12)	–	–	29900	12900	23100	–	–	–	–	–	19100	23300	–	–	–	–
CN1CC2CC1C[C@@H](OC(=O)C(C)(c1ccccc1)c1ccccc1)C2 (single isomer, unassigned; (-))	–	–	10.7	14.5	7.89	–	–	–	–	–	6.36	–	–	–	–	–
CC(=O)O[C@H]1CC2CC(C1)N(C)C2 (single isomer, unassigned; (-))	–	–	4970	4190	7210	–	–	–	–	–	3730	6550	–	–	–	–
CC(=O)O[C@H]1CC2CC(C1)N(C)C2 (single isomer, unassigned; (+))	–	–	19700	21000	13900	–	–	–	–	–	8560	–	2170	–	–	–
CC(=O)O[C@@H]1CC2CC(C1)N(C)C2 (stereo in doubt; 9)	–	–	14100	11900	8620	12500	–	–	–	–	8550	7820	–	–	–	–
CC(=O)O[C@@H]1CC2CC(C1)N(C)C2 (single isomer, unassigned; (-))	–	–	46700	38100	22100	–	–	–	–	–	23000	33900	–	–	–	–
CN1CC2CC1C[C@@H](OC(=O)C(C)(c1ccccc1)c1ccccc1)C2 (single isomer, unassigned; (+))	–	–	–	0.054	–	–	–	–	–	–	0.0297	–	–	0.0383	0.0986	–
CN1CC2CC1C[C@@H](OC(=O)C(c1ccccc1)c1ccccc1)C2 (some centres not stated)	5.49	8.45	4.3	8.21	1.23	2.87	–	1.74	–	–	1.89	–	–	–	–	1.86
CC(=O)O[C@H]1CC2CC(C1)N(C)C2 (stereo in doubt; 8)	–	–	8990	8400	9200	9810	–	–	–	–	7530	1150	–	–	–	–
CC(=O)O[C@@H]1CC2CC(C1)N(C)C2 (single isomer, unassigned; (+))	–	–	11300	10400	7110	–	–	–	–	–	6470	10400	–	–	–	–
CN1CC2CC1C[C@H](OC(=O)C(C)(c1ccccc1)c1ccccc1)C2 (some centres not stated)	12.9	8.44	9.28	9.64	2.94	12.7	8.75	1.86	–	–	4.2	–	–	–	–	1.91
CC(=O)O[C@H]1CC2CC(C1)N([C@H](C)c1ccccc1)C2 (some centres not stated)	–	–	14900	7700	12800	–	–	–	–	–	10100	1950	–	–	–	–
CN1CC2CC1C[C@H](OC(=O)C(c1ccccc1)c1ccccc1)C2 (some centres not stated)	16.9	8.27 and 8.32	11.2	19.1	4.75	5.73	–	1.55	–	–	4.07	–	–	–	–	1.82
